Each block holds one molecule with its values, some of them ahead of it.
Key:
[1] = cited from earlier work; for Solubility (in words): background statement
Solubility in water = assay type: physicochemical; details: description of the patent's own materials
[2] = Swine trial (16 barrows, 14 days): zinc in ileal, cecal and fecal samples and zinc digestibility; assay type: in vivo; details: pigs
Description: A representative animal trial used a group of 16 barrows (castrated male pigs) including of 8 pairs of littermates. […] The littermate pairs were divided in half and randomly assigned to either the control diet or the test diet containing a composition of the presently disclosed subject matter. Each diet was formulated using a basal diet primarily of corn and soybean meal containing 50 ppm Zn from an added vitamin premix. The control diet contained an additional 50 ppm Zn from Basic Zinc Chloride (Zn5Cl2(OH)8.H2O) and the test diet contained an additional 50 ppm Zn from a composition of the presently disclosed subject matter for a total of 100 ppm Zn for each diet to meet the National Research Council recommendation for zinc supplementation of pigs of this size. The composition of the presently disclosed subject matter was prepared as described herein above.
Pigs were fed twice daily at 0800 and 1700 for the entirety of the trial. Daily feed intake for maintenance was determined for each pig at 4% of initial body weight at the beginning of the trial. Each pig was housed in a separate metabolism crate allowing for the quantitative collection of feces and urine. The trial lasted for a total of 14 days; the first 10 days allowed for the pigs to adjust to their new environments and diets. Days 11-13 for were used for twice-daily feces and urine collection. On day 14 all pigs were weighed and humanely euthanized prior to dissections to obtain ileal and cecal content samples. Feces samples and urine samples were pooled daily and stored at −20 C until ready for analysis. Fecal, ileal, and cecal samples were dried at 64 C in a drying oven until no change in mass was observed which took between 48-96 hours for most samples. After being dried completely, samples were sent to Missouri Field Laboratories for analysis of Zn, Titanium dioxide which was used as a feed marker, and proximate nutrient analysis. Pigs gained an average of 7.34 kilograms per pig during the 14 day trial.
The control diet, containing all supplemental zinc from basic zinc chloride, contained 134 ppm zinc. […] This may be indicative of the composition of the presently disclosed subject matter having higher levels of zinc than used in formulation of the diets.
Using the concentration of zinc found in the feed and ileal, cecal and fecal samples, zinc digestibility by the following equation: 100−[100*(zinc in feed/zinc in feces)]. Since the amounts of zinc present in the diets were over the zinc requirement of pigs of this size and age, the extra zinc in the diets employing a composition of the presently disclosed subject matter (referred to as “Experimental” in Table 2) may have affected the zinc digestibility results.

[3] = 100-[100*(zinc in feed/zinc in sample)]

Molecule: O=C([O-])[C@H](O)[C@@H](O)[C@H](O)[C@H](O)CO.O=C([O-])[C@H](O)[C@@H](O)[C@H](O)[C@H](O)CO.[Zn+2] [zinc gluconate, Zn(O2C(CHOH)4CH2OH)2]
Solubility (in words) [1]: highly soluble

Molecule: [Cl-].[Cl-].[Zn+2] [ZnCl2]
Solubility (amount that dissolves in 1 L of water) ([1]; in 1 L of water): 4 kg

Solubility in water / aqueous solution (in words) (Solubility in water): highly insoluble in water
Percent more zinc in ileal contents than in cecal contents [2]: 2.2%
Concentration of Zinc found in contents of the cecum ([2]; dried cecal contents, day 14, diet zinc found 134 ppm (control) / 152 ppm (experimental)): 399 ppm
Concentration of Zinc found in feces ([2]; dried feces collected days 11-13, diet zinc found 134 ppm (control) / 152 ppm (experimental)): 678 ppm
Concentration of Zinc found in contents of the ileum ([2]; dried ileal contents, day 14, diet zinc found 134 ppm (control) / 152 ppm (experimental)): 408 ppm
Percent Digestibility of Zinc in Feed, Fecal ([2]; 100-[100*(zinc in feed/zinc in feces)]): 80.2%
Percent Digestibility of Zinc in Feed, Cecal [2, 3]: 66.1%
Percent Digestibility of Zinc in Feed, Ileal [2, 3]: 62.6%
Share of total zinc excreted in feces ([2]; fecal zinc vs total of ileal, cecal and fecal zinc): 45.7%
Share of total zinc retained in ilium+cecum ([2]; ileal+cecal zinc vs total of ileal, cecal and fecal zinc): 54.3%
Molecule: Zn5Cl2(OH)8.H2O [Control]

Molecule: [O]=[Zn] [Zinc oxide]
Solubility (in words) [1]: relatively insoluble except in acid

— patent US20230165278A1, “NUTRITIONAL SUPPLEMENTS COMPRISING DIETARY METAL COMPLEXES IN A MATRIX OF CELLULOSIC MATERIALS” (North Carolina State University, priority 2020, published 2023)
